The results in this text go back to patent publication US20080269326A1, “Use of 1-Phenyl-3-Dimethylamino-propane Compounds for Treating Neuropathic Pain” (GRUENENTHAL GmbH, priority 2007, published 2008).

Assay [1] relates to cold allodynia in Bennett animals. As to the kind of experiment: Bennett model (chronic constriction injury), cold allodynia on 4° C. cold metal plate. Format: in vivo, rat. Conditions: for ED50: Rattus norvegicus. The procedure:
The effectiveness in treating neuropathic pain was investigated in the Bennett model (chronic constriction injury; Bennett and Xie, 1988, Pain 33: 87-107).
(§1) Sprague-Dawley rats weighing 140-160 g are provided with four loose ligatures of the right sciatic nerve under nembutal narcosis. The animals develop a hypersensitivity in the paw innervated by the damaged nerve, which after a healing phase of one week is quantified over about four weeks by means of a 4° C. cold metal plate (cold allodynia). The animals are observed for two minutes on this plate and the number of retractive movements of the damaged paw are measured. The effect of the substance is determined with reference to the base value before application of the substance, at four different times over a period of one hour(15, 30, 45 and 60 minutes after application) and the resultant area under the curve (AUD) as well as the inhibition of cold allodynia at the individual measurement points is expressed in percent effect with reference to the vehicle control (AUD) and to the initial value (individual measurement points). The cohort size is n=10.

For assay [2], the system named is tactile allodynia in Chung animals. The experiment in a line: Chung model (spinal nerve ligature), tactile allodynia, electronic von Frey. Format: in vivo. Conditions: Rattus norvegicus, ip, 0.5 h; rats, i.p., 30 minutes after administration. On the procedure: Spinal nerve ligatures according to Kim & Chung (1992 Pain 50, 355-363) were applied to the left L5/L6 spinal nerves of male Spraque-Dawley rats. Four to six days after the operation the tactile threshold baseline (withdrawal threshold) was measured on the ipsilateral and contralateral rear paw by an electronic von Frey anaesthesiometer (IITC Life Science, USA). After the test and measurement of the baseline, morphine, gabapentin and some of the aforementioned compounds used according to the invention were administered. The tactile withdrawal thresholds were measured 30 minutes after the administration. The results are expressed as ED50 and % maximal possible effect (% MPE) on the ipsilateral side, in which the baseline is taken as 0% and the withdrawal threshold of a control group is taken as 100% MPE.

Assay [3] concerns cold allodynia in morphine-tolerant Bennett animals. The experiment in a line: Bennett model cold allodynia in morphine-tolerant animals. Format: in vivo, rat. The procedure:
as §1
The underlying question is the action of a test substance having a presumably opioid action mechanism in patients who are tolerant or treatment-resistant to morphine. […] The action of test substances in naive (non-morphine-tolerant) animals and morphine-tolerant animals is compared in Table 4. […] Morphine [10 mg/kg i.p.], Compound 9 [10 and 21.5 mg/kg i.p.], Compound 10 [0.46 and 1 mg/kg i.p.], Compound 4 [21.5 mg/kg i.p.] and Compound 11 [21.5 mg/kg i.p.] were tested analogously to Example 1.

The subject of the next assay is neuropathic pain. As to the kind of experiment: Tests of substances together with naloxone in treating neuropathic pain. Format: in vivo.
The test system of assay [4] is mechanical hyperalgesia in diabetic animals. As to the kind of experiment: Streptozotocin diabetic neuropathy, mechanical hyperalgesia (Randall and Sellito). Format: in vivo, rat. Conditions: diabetic rats; for ED50: Rattus norvegicus, ip, i.p., read-out: Mechanical hyperalgesia ED50 (95% confidence region). On the procedure: Male Sprague-Dawley rats weighing 160-180 g received an intra-peritoneal injection of streptozotocin (75 mg/kg body weight) dissolved in pH 4.6 citrate buffer. One week later diabetic animals were identified by measuring the blood glucose level, and those with a blood glucose level of ≧17 mM were included in the study. Three and four weeks after administration of streptozotocin the mechanical reaction threshold was measured in diabetic animals by the method of Randall and Sellito (1957 Arch. Int. Pharmacody. […]:409-419) before (pre-test) and at various times after administration of the test substance or vehicle (post-test). […] The maximum pressure exerted on the rear paw was 250 g. The end point of the mechanical reaction threshold in grams was determined based on the reaction of the animal (withdrawal of the rear paw, vocalisation or evasive reaction). The size of the cohort in the individual dose stages was n=10. The maximum possible response in percent (% MPE=% of maximum possible effect) was calculated according to the formula:
% MPE=(post-test−pre-test)/(250−pre-test)×100.
ED50 values (dose at which 50% maximum inhibition occurred) were determined by regression analysis from the % MPE values at the time of the maximum effect.

In the case of `CC[C@](O)(c1cccc(OC)c1)[C@H](C)CN(C)C` (racemic) [Compound 1, (2RS,3RS)-1-dimethylamino-3-(3-methoxyphenyl)-2-methylpentan-3-ol], the ED50 in assay [1] (ip, rats) stood at 11.1 mg/kg; in assay [2], 10.1 mg/kg.

For `C[C@H](CN(C)C)[C@@](C)(O)c1cccc(O)c1` (racemic) [Compound 5, (1RS,2RS)-3-(3-dimethylamino-1-hydroxy-1,2-dimethylpropyl)-phenol], in assay [1] (ip, rats), the 50% effect level (ED50) was put at a dose of 15 mg/kg.

Turning to `CC[C@](O)(c1cccc(C(F)F)c1)[C@H](C)CN(C)C` (racemic) [Compound 8, (2RS,3RS)-3-(difluoromethylphenyl)-1-dimethylamino-2-methylpentan-3-ol], the “Cold allodynia ED50” value in assay [1] (rats, i.p.) amounted to 17.1 mg/kg.

For `CC[C@@](O)(c1cccc(OC)c1)[C@@H](C)CN(C)C` [Compound 2, (2S,3S)-1-dimethylamino-3-(3-methoxyphenyl)-2-methylpentan-3-ol], the ED50 in assay [1] (ip, rats) worked out at 26 mg/kg.

In assay [1] (ip, rats), `CC[C@](O)(c1cccc(OC)c1)[C@H](C)CN(C)C` [Compound 3, (2R,3R)-1-dimethylamino-3-(3-methoxyphenyl)-2-methylpentan-3-ol] yielded an ED50 of 9.2 mg/kg.

For `C[C@@H](CN(C)C)[C@](C)(O)c1cccc(O)c1` [Compound 6, (1S,2S)-3-(3-dimethylamino-1-hydroxy-1,2-dimethylpropyl)phenol], the ED50 is 32.6 mg/kg in assay [1] (ip, rats) and 4.65 mg/kg in assay [2].

For `C[C@H](CN(C)C)[C@@](C)(O)c1cccc(O)c1` [Compound 7, (1R,2R)-3-(3-dimethylamino-1-hydroxy-1,2-dimethylpropyl)phenol], it took a dose of 11.1 mg/kg to reach the 50% effect level in assay [1] (ip, rats) (ED50).

For `CC[C@H](c1cccc(O)c1)[C@H](C)CN(C)C` [Compound 10, (1S,2S)-3-(3-dimethylamino-1-ethyl-2-methylpropyl)phenol], the “Cold allodynia (% AUD) Morphine-tolerant animals” value came to 22.9 % AUD in assay [3] (0.46 mg/kg i.p.), 39.9 % AUD in assay [3] (1 mg/kg i.p.) and 13.0 % AUD in assay [3] (2.15 mg/kg i.p.). Besides, the “Cold allodynia (% AUD) Naïve animals” value in assay [1] (0.46 mg/kg i.p.) is recorded as 29.0 % AUD; in assay [1] (1 mg/kg i.p.), 42.7 % AUD; in assay [1] (2.15 mg/kg i.p.), 59.2 % AUD. Moreover, the ED50 in assay [1] (ip, rats) is 1.2 mg/kg; in assay [2], 1.5 mg/kg. The “effectiveness in treating neuropathic pain with naloxone” value in the assay with neuropathic pain is given as “effective”.

Take `CC(CN(C)C)=C(C)c1cccc(O)c1` [Compound 14, 3-(3-dimethylamino-1,2-dimethylpropenyl)-phenol]: in assay [1] (ip, rats), it took a dose of 3.6 mg/kg to reach the 50% effect level (ED50).

For the molecule `NCC1(CC(=O)O)CCCCC1` [Gabapentin, reference compound], the ED50 in assay [1] (po, rats) worked out at 214 mg/kg; in assay [4], 225 mg/kg; in assay [2], 92.6 mg/kg. For the same molecule, the “Mechanical hyperalgesia Maximum effect in % MPE” value in assay [4] (464 mg/kg i.p.) was 80% (464 mg/kg) % MPE.

As to `CN1CC[C@]23c4c5ccc(O)c4O[C@H]2[C@@H](O)C=C[C@H]3[C@H]1C5` [Morphine, reference compound], in assay [3] (10 mg/kg i.p.), the “Cold allodynia (% AUD) Morphine-tolerant animals” value is reported as −22.0 % AUD. The “anti-allodynic action (cold allodynia) in morphine-tolerant animals” value in assay [3] (i.p.) was “no longer exhibits any effect”. Besides, in assay [1] (10 mg/kg i.p.), the “Cold allodynia (% AUD) Naïve animals” value turned out to be 78.6 % AUD. Besides, the ED50 in assay [1] (ip, rats) turned out to be 7.1 mg/kg; in assay [4], 3 mg/kg; in assay [2], 4.6 mg/kg. Besides, in assay [4] (10 mg/kg i.p.), the “Mechanical hyperalgesia Maximum effect in % MPE” value is 89% (10 mg/kg) % MPE. Besides, the “effectiveness in treating neuropathic pain with naloxone” value with neuropathic pain was “effective”.

Take `COc1cccc(C2(O)CCCCC2CN(C)C)c1` (stereo not drawn) [Tramadol]: in assay [4], the ED50 came to 9.2 mg/kg. For the same molecule, the “Mechanical hyperalgesia Maximum effect in % MPE” value in assay [4] (21.5 mg/kg i.p.) is listed as 86% (21.5 mg/kg) % MPE.

What is called ED50 is the dose at which the effect has come halfway, by size or by number of responders.
